Where two headings read alike, the source gives them in different places.
Experiment: Plasma pharmacokinetics of AZD5363 after a single dose and multiple doses
Assay type: in vivo, human
Details: for AUC / Cmax / Vd/F / C ss,max: geometric mean (CV%); for Tmax / t ss,max / t half: median (range); for Vd/F: read-out: V ss/F
Excerpt: […] area under the plasma concentration–time curve (AUC), maximum plasma (peak) drug concentration (Cmax), time to reach Cmax (tmax), apparent plasma clearance (CL/F), and oral volume of distribution at steady state (Vss/F).

[1] = human, plasma, oral, single dose, 80 mg bid continuous cohort, n=3
[2] = human, plasma, oral, single dose, 240 mg bid continuous cohort, n=7
[3] = human, plasma, oral, single dose, 320 mg bid continuous cohort, n=6
[4] = human, plasma, oral, single dose, 360 mg bid intermittent 4/3 cohort, n=8
[5] = human, plasma, oral, single dose, 400 mg bid continuous cohort, n=5
[6] = human, plasma, oral, single dose, 480 mg bid intermittent 4/3 cohort, n=6
[7] = human, plasma, oral, single dose, 640 mg bid intermittent 2/5 cohort, n=6
[8] = human, plasma, oral, single dose, Total, n=41
[9] = multiple doses, 80 mg bid continuous, n=3
[10] = multiple doses, 240 mg bid continuous, n=7
[11] = multiple doses, 320 mg bid continuous, n=4
[12] = multiple doses, 360 mg bid intermittent 4/3, n=7
[13] = multiple doses, 400 mg bid continuous, n=4
[14] = multiple doses, 480 mg bid intermittent 4/3, n=6
[15] = multiple doses, 640 mg bid intermittent 2/5, n=6

NC1(C(=O)N[C@@H](CCO)c2ccc(Cl)cc2)CCN(c2ncnc3[nH]ccc23)CC1 [AZD5363]
AUC (human, plasma, oral, 80 mg, multiple doses, 80 mg bid continuous, n=3, read-out: AUCss): 1520 ng·h/mL | AUC (human, plasma, oral, 80 mg, single dose, 80 mg bid continuous cohort, n=3, read-out: AUC): 1260 ng·h/mL | AUC (human, plasma, oral, 240 mg, multiple doses, 240 mg bid continuous, n=7, read-out: AUCss): 4840 ng·h/mL | AUC (human, plasma, oral, 240 mg, single dose, 240 mg bid continuous cohort, n=7, read-out: AUC): 3290 ng·h/mL | AUC (human, plasma, oral, 320 mg, multiple doses, 320 mg bid continuous, n=4, read-out: AUCss): 5770 ng·h/mL | AUC (human, plasma, oral, 320 mg, single dose, 320 mg bid continuous cohort, n=6, read-out: AUC): 7110 ng·h/mL | AUC (human, plasma, oral, 360 mg, multiple doses, 360 mg bid intermittent 4/3, n=7, read-out: AUCss): 5870 ng·h/mL | AUC (human, plasma, oral, 360 mg, single dose, 360 mg bid intermittent 4/3 cohort, n=8, read-out: AUC): 4770 ng·h/mL | AUC (human, plasma, oral, 400 mg, multiple doses, 400 mg bid continuous, n=4, read-out: AUCss): 9670 ng·h/mL | AUC (human, plasma, oral, 400 mg, single dose, 400 mg bid continuous cohort, n=5, read-out: AUC): 4670 ng·h/mL | AUC (human, plasma, oral, 480 mg, multiple doses, 480 mg bid intermittent 4/3, n=6, read-out: AUCss): 10900 ng·h/mL | AUC (human, plasma, oral, 480 mg, single dose, 480 mg bid intermittent 4/3 cohort, n=6, read-out: AUC): 7210 ng·h/mL | AUC (human, plasma, oral, 640 mg, multiple doses, 640 mg bid intermittent 2/5, n=6, read-out: AUCss): 14200 ng·h/mL | AUC (human, plasma, oral, 640 mg, single dose, 640 mg bid intermittent 2/5 cohort, n=6, read-out: AUC): 11400 ng·h/mL | AUC (human, plasma, oral, multiple doses, Total, n=37, read-out: AUCss): 6820 ng·h/mL | Tmax (human, plasma, oral, single dose, all cohorts, read-out: tmax): 1.98 h | Cmax [1]: 217 ng/mL | Vd/F [1]: 715 L | Tmax (human, plasma, oral, single dose, 80 mg bid continuous cohort, n=3, read-out: t max): 2 h | Cmax [2]: 628 ng/mL | Vd/F [2]: 682 L | Tmax (human, plasma, oral, single dose, 240 mg bid continuous cohort, n=7, read-out: t max): 1.9 h | Cmax [3]: 1580 ng/mL | Vd/F [3]: 370 L | Tmax (human, plasma, oral, single dose, 320 mg bid continuous cohort, n=6, read-out: t max): 1.98 h | Cmax [4]: 1010 ng/mL | Vd/F [4]: 681 L | Tmax (human, plasma, oral, single dose, 360 mg bid intermittent 4/3 cohort, n=8, read-out: t max): 1.99 h | Cmax [5]: 1060 ng/mL | Vd/F [5]: 777 L | Tmax (human, plasma, oral, single dose, 400 mg bid continuous cohort, n=5, read-out: t max): 1.97 h | Cmax [6]: 1910 ng/mL | Vd/F [6]: 502 L | Tmax (human, plasma, oral, single dose, 480 mg bid intermittent 4/3 cohort, n=6, read-out: t max): 1.02 h | Cmax [7]: 2100 ng/mL | Vd/F [7]: 587 L | Tmax (human, plasma, oral, single dose, 640 mg bid intermittent 2/5 cohort, n=6, read-out: t max): 2.02 h | Cmax [8]: 1090 ng/mL | AUC (human, plasma, oral, single dose, Total, n=41, read-out: AUC): 5180 ng·h/mL | Vd/F [8]: 595 L | half-life (human, plasma, single oral doses): ~10 h | C ss,max [9]: 318.3 (128.4) ng/mL | t ss,max [9]: 1 (0.98‒1.97) hours | C ss,max [10]: 874.4 (89.7) ng/mL | t ss,max [10]: 1.98 (0.97‒3.9) hours | C ss,max [11]: 1222 (53.7) ng/mL | t ss,max [11]: 1.465 (0.92‒2.12) hours | C ss,max [12]: 1366 (64.9) ng/mL | t ss,max [12]: 0.98 (0.5‒2) hours | C ss,max [13]: 2094 (56.6) ng/mL | t ss,max [13]: 2 (0.93‒2) hours | C ss,max [14]: 2670 (36.7) ng/mL | t ss,max [14]: 1.99 (1‒2.05) hours | C ss,max [15]: 2618 (20.0) ng/mL | t ss,max [15]: 2.01 (2‒3.97) hours | C ss,max (multiple doses, Total, n=37): 1430 (96.6) ng/mL | t ss,max (multiple doses, Total, n=37): 1.98 (0.5‒3.97) hours | t ss,max (multiple dosing, all cohorts): 1.98 (0.50–3.97) hours | dose proportionality of exposure (single and multiple doses, 80- to 640-mg doses): generally dose proportional | t half (single dose, 80 mg bid continuous cohort, n=3): 11.8 (8.5‒12.2) hours | t half (single dose, 240 mg bid continuous cohort, n=7): 10.2 (8.2‒10.9) hours | t half (single dose, 320 mg bid continuous cohort, n=6): 9.7 (7.3‒10.6) hours | t half (single dose, 360 mg bid intermittent 4/3 cohort, n=8): 9.7 (5.3‒11.1) hours | t half (single dose, 400 mg bid continuous cohort, n=5): 9.6 (9.0‒13.0) hours | t half (single dose, 480 mg bid intermittent 4/3 cohort, n=6): 9.3 (8.1‒11.6) hours | t half (single dose, 640 mg bid intermittent 2/5 cohort, n=6): 10.1 (9.4‒13.7) hours | Tmax (single dose, Total, n=41): 1.98 (0.87‒4.02) hours | t half (single dose, Total, n=41): 9.9 (5.3‒13.7) hours | duration of distribution phase following Cmax (single oral doses, generally lasting up to): 6 to 8 h

— article PMC4819940 (Cancer Chemotherapy and Pharmacology, 2016)
